Assay results taken from patent US20250171420A1 (Monte Rosa Therapeutics, Inc., priority 2022, published 2025).
Where two headings read alike, the source gives them in different places.

What was measured:
CK1α [1] = molecular target: T1, CK1α (Homo sapiens, UniProt P48729); experiment: CK1α NanoBit Assay (HiBiT-tagged CSNK1A1, HEK293 clonal lines); type: cell-based; conditions: HEK293 HiBiT-CSNK1A1/LgBiT cells, 24 h incubation
T1 construct: HEK293 clonal lines with CRISPR KI HiBiT tag on CSNK1A1
T1 sequence (P48729 whole entry): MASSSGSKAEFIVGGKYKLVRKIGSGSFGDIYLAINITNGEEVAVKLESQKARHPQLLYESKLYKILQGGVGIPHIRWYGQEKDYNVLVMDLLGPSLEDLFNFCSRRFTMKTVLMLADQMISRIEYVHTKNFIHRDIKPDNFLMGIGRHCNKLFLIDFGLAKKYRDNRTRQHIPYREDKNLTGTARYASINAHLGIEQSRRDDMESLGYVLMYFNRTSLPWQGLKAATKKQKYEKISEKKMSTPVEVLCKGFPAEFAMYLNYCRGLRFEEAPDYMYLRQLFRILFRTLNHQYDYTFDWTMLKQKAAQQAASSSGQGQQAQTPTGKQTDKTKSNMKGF
T1 sequence (Q96SW2 whole entry, further chain): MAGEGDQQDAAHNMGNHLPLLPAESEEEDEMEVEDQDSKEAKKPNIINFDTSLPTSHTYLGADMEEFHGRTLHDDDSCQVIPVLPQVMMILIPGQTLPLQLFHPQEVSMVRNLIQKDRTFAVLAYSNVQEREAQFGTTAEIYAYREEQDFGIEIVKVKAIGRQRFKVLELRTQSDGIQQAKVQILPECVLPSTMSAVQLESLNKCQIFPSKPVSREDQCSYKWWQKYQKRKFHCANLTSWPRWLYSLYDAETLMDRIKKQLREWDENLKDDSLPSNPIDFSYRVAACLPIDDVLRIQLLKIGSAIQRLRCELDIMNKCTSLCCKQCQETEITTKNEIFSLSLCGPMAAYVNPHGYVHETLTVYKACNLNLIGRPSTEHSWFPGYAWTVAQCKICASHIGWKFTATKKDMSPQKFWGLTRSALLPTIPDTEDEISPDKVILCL
T1 sequence (Q16531 2-1140 partner limits assumed): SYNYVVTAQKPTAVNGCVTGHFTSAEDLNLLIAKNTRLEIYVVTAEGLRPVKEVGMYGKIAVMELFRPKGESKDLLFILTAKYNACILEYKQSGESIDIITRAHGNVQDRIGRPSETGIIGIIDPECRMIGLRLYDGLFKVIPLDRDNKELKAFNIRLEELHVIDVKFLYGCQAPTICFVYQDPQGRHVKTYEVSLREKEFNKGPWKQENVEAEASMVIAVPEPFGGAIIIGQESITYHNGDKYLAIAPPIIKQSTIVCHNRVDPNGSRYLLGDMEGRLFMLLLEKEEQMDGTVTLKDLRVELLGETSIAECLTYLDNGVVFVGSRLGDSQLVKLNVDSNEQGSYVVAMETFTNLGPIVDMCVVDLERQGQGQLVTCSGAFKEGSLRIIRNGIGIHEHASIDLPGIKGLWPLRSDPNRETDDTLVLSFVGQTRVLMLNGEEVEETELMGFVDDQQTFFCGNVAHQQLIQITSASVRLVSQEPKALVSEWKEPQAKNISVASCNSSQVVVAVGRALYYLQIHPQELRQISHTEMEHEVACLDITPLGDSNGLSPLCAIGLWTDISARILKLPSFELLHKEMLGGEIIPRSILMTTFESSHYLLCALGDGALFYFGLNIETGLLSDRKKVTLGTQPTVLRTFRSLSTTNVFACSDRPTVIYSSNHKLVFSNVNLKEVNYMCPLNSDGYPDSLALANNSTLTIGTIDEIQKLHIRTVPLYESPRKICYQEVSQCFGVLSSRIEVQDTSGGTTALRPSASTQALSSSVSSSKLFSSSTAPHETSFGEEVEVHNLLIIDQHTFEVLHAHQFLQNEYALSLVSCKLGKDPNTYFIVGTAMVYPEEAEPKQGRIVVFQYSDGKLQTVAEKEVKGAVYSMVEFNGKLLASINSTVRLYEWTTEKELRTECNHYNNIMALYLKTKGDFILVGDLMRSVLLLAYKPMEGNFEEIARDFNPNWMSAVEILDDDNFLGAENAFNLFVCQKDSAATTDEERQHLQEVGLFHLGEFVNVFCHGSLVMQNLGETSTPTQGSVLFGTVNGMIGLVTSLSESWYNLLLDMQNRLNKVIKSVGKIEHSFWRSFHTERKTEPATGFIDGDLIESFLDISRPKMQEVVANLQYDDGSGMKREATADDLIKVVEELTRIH
Outline: (§1)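 HEK293 clones carrying a CRISPR knock-in HiBiT tag on CSNK1A1 and stably expressing LgBiT are treated with compound for 24 hours at 37° C, 5% CO2, then read by luminescence. Response is normalized as 100*(S−N)/(P−N) against plate negative and positive controls, and DC50 values are derived.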

[2] = Oral pharmacokinetics in male BALB/c mice; type: in vivo; conditions: mouse, plasma, mean ± SD
Experimental: Male BALB/c mice were administered a discrete, oral (PO) dose of Compound 288, Compound 335, Compound 102, or Compound 303 at 10 mg/kg; all mice were fasted except for mice that were dosed with Compound 288. Male BALB/c mice were fasted overnight and administered a cassette dose, PO dose of Compound 303 and other compounds at 5 mg/kg per compound.
Blood samples were collected serially from three animals/time-point following PO administration of the test compounds to the mice and placed in tubes containing K2EDTA. The blood samples were centrifuged, and the aliquots of the resulting plasma stored frozen at −60 to −90° C.
The plasma samples were analyzed by LC-MS/MS to determine concentrations of the test compounds. The in-life portion of the study and the bioanalysis of plasma samples was conducted at Wuxi (China).
The pharmacokinetic parameters for the tested compounds were calculated by non-compartmental analysis using Phoenix WinNonlin software.

CRBN/DDB1 = CRBN/DDB1 (Homo sapiens, UniProt Q96SW2); experiment: HTRF binding assay (displacement of Cy5-thalidomide probe from CRBN/DDB1)
Sequence of CRBN/DDB1 (Q96SW2 whole entry, species assumed): as the sequence (Q96SW2 whole entry, further chain) above
Sequence of CRBN/DDB1 (Q16531 whole entry partner, species assumed): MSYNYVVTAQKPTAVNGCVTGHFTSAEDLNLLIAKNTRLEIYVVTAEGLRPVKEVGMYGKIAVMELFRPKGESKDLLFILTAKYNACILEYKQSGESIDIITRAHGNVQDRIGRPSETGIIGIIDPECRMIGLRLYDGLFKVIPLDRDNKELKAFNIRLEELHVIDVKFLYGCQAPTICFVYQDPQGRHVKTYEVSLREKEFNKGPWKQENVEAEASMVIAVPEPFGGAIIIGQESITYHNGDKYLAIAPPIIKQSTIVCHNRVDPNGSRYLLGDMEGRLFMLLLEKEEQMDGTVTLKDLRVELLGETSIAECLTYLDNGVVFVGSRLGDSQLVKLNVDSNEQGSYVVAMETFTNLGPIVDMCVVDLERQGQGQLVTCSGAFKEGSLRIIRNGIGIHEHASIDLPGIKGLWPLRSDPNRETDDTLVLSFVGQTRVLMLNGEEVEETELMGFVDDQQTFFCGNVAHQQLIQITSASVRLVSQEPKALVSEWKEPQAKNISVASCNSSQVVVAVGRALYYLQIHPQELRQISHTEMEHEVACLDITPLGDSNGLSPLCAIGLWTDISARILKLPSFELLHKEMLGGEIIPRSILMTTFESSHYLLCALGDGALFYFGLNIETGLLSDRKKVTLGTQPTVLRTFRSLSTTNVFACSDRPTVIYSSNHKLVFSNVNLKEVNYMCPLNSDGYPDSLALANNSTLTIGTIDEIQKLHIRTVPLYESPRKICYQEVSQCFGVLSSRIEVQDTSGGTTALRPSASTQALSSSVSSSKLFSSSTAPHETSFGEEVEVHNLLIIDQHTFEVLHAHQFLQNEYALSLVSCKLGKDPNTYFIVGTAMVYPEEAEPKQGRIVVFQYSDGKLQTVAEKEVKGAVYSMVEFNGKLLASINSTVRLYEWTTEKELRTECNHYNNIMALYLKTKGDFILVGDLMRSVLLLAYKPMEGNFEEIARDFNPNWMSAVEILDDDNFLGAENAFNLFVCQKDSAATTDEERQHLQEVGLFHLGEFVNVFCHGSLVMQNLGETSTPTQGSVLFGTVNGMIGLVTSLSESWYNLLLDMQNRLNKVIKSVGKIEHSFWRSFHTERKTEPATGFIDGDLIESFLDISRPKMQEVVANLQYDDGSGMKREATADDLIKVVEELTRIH
Outline: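 Compounds in a 10-point threefold dilution series were incubated 30 min at ambient temperature with 2.5 nM CRBN/DDB1, 100 nM Cy5-thalidomide probe and terbium anti-His donor (HEPES/NaCl/TCEP/EDTA/Tween20 buffer). IC50 came from 4-parameter fits of the 665/620 nm HTRF ratio; Ki used Cheng-Prusoff on geometric-mean IC50.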

GP2D cell line = experiment: Growth inhibition, CyQUANT Direct Cell Proliferation Assay, GP2D; type: cell-based
Outline: (§2)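 Cells seeded 300 to 1,800 per well, day-0 CyQUANT Direct read after overnight attachment; 9-point 3-fold dilutions from 30 μM top concentration, 120 to 168 h exposure, 0.3% DMSO control. Fluorescence Ex/Em 480/520 nm; growth inhibition normalised to day-0 and untreated day-N signals, GI50 at 50% of untreated control.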

SKCO1 cell line = experiment: Growth inhibition, CyQUANT Direct Cell Proliferation Assay, SKCO1; type: cell-based; conditions: Homo sapiens
Outline: as §2

LS174T cell line = experiment: Growth inhibition, CyQUANT Direct Cell Proliferation Assay, LS174T; type: cell-based; conditions: Homo sapiens
Outline: as §2

LS180 cell line = experiment: Growth inhibition, CyQUANT Direct Cell Proliferation Assay, LS180; type: cell-based; conditions: Homo sapiens
Outline: as §2

CW2 cell line = experiment: Growth inhibition, CyQUANT Direct Cell Proliferation Assay, CW2; type: cell-based; conditions: Homo sapiens
Outline: as §2

CK1α [3] = molecular target: T2, CK1α (Homo sapiens, UniProt P48729+Q96SW2); experiment: CK1α NanoBit Assay (HiBiT-tagged CSNK1A1, HEK293 clonal lines); type: cell-based; conditions: read-out: CK1α DC50 (μM) 24 h; HEK293 HiBiT-CSNK1A1/LgBiT cells, 24 h incubation
T2 construct: HEK293 clonal lines with CRISPR KI HiBiT tag on CSNK1A1
T2 sequence (P48729 whole entry): as the sequence (P48729 whole entry) above
T2 sequence (Q96SW2 whole entry): as the sequence (Q96SW2 whole entry, further chain) above
T2 sequence (Q16531 2-1140 partner limits assumed): as the sequence (Q16531 2-1140 partner limits assumed) above
Outline: as §1

[4] = CRBN/DDB1 2.5 nM, Cy5-Thalidomide 100 nM, 30 min, geometric mean, read-out: HTRF_Thali_Disp_DR_geo_IC50
[5] = GP2D, 120 to 168 hours, read-out: GP2D GI50
[6] = SK-CO-1, SKCO1, 120 to 168 hours, read-out: SKCO1 GI50
[7] = 120 to 168 hours, read-out: LS174T GI50
[8] = LS180, 120 to 168 hours, read-out: LS180 GI50
[9] = CW-2, CW2, 120 to 168 hours, read-out: CW2 GI50
[10] = SK-CO-1, read-out: SKCO1 GI50 (μM)
[11] = LS180, read-out: LS180 GI50 (μM)

Row | SMILES | DC50 (CK1α [1]) [µM] | IC50 (CRBN/DDB1; [4]) [nM] | GI50 (SKCO1 cell line; [6]) [µM] | GI50 (GP2D cell line; [5]) [µM] | GI50 (LS174T cell line; [7]) [µM] | GI50 (LS180 cell line; [8]) [µM] | GI50 (CW2 cell line; [9]) [µM] | further results
1 | COCC1c2ccc(C3CC3)cc2CN1C(=O)Nc1ccc2c(c1)CN(C1CCC(=O)NC1=O)C2=O (stereo not drawn) [Compound 335, 5-cyclopropyl-N-(2-(2,6-dioxopiperidin-3-yl)-1-oxoisoindolin-5-yl)-1-(methoxymethyl)isoindoline-2-carboxamide] | < 0.1 | 100 to 1000 |  |  |  |  |  | AUC ([2]; PO 10 mg/kg): 13400 ± 696 ng·h/mL; AUC(0-t) ([2]; PO 10 mg/kg): 13300 ± 694 ng·h/mL; Cmax ([2]; PO 10 mg/kg): 10600 ± 697 ng/mL; Tmax ([2]; PO 10 mg/kg): 15 min; half-life ([2]; PO 10 mg/kg): 64.8 ± 2.4 min
2 | CC(C)(C)C1CN(C(=O)Nc2ccc3c(c2)CN(C2CCC(=O)NC2=O)C3=O)c2ccccc21 (stereo not drawn) [Compound 187, 3-(tert-butyl)-N-(2-(2,6-dioxopiperidin-3-yl)-1-oxoisoindolin-5-yl)indoline-1-carboxamide] |  |  |  |  |  |  |  | DC50 (CK1α [3]): < 0.1 µM; IC50 (CRBN/DDB1): 100 to 1000 nM
3 | O=C1CCC(N2Cc3cc(NC(=O)N4CCc5cc(C(F)(F)F)ccc54)ccc3C2=O)C(=O)N1 (stereo not drawn) [Compound 185, N-(2-(2,6-dioxopiperidin-3-yl)-1-oxoisoindolin-5-yl)-5-(trifluoromethyl)indoline-1-carboxamide] | < 0.1 | 100 to 1000 |  |  |  |  |  | GI50 (GP2D cell line; GP2d, read-out: GP2D GI50 (μM)): 0.1 to 1 µM; GI50 (SKCO1 cell line; [10]): 0.1 to 1 µM; GI50 (LS174T cell line; read-out: LS174T GI50 (μM)): 0.1 to 1 µM; GI50 (LS180 cell line; [11]): 0.1 to 1 µM; GI50 (CW2 cell line; CW-2, read-out: CW2 GI50 (μM)): 0.1 to 1 µM
4 | O=C1CCC(N2Cc3cc(NC(=O)N4CCc5c(C6CC6)cccc54)ccc3C2=O)C(=O)N1 (stereo not drawn) [Compound 164, 4-cyclopropyl-N-(2-(2,6-dioxopiperidin-3-yl)-1-oxoisoindolin-5-yl)indoline-1-carboxamide] | < 0.1 | 100 to 1000 | < 0.1 | < 0.1 | < 0.1 | 0.1 to 1 | < 0.1 | 
5 | CC1(C)CN(C(=O)Nc2ccc3c(c2)CN(C2CCC(=O)NC2=O)C3=O)c2ccccc21 (stereo not drawn) [Compound 124, N-(2-(2,6-dioxopiperidin-3-yl)-1-oxoisoindolin-5-yl)-3,3-dimethylindoline-1-carboxamide] | < 0.1 | 100 to 1000 |  |  |  |  |  | GI50 (GP2D cell line; GP2d, read-out: GP2D GI50 (μM)): < 0.1 µM; GI50 (SKCO1 cell line; [10]): < 0.1 µM; GI50 (LS174T cell line; read-out: LS174T GI50 (μM)): < 0.1 µM; GI50 (LS180 cell line; [11]): 0.1 to 1 µM; GI50 (CW2 cell line; CW-2, read-out: CW2 GI50 (μM)): < 0.1 µM
6 | O=C1CCC(N2Cc3cc(NC(=O)N4CCc5cc(C6CC6)ccc54)ccc3C2=O)C(=O)N1 (stereo not drawn) [Compound 348, 5-cyclopropyl-N-(2-(2,6-dioxopiperidin-3-yl)-1-oxoisoindolin-5-yl)indoline-1-carboxamide] | < 0.1 | 100 to 1000 | < 0.1 | < 0.1 | < 0.1 | < 0.1 | < 0.1 | 

Further lines, with some results ahead:

Row | DC50 (CK1α [1]) [µM] | IC50 (CRBN/DDB1; [4]) [nM] | GI50 (SKCO1 cell line; [6]) [µM] | SMILES | GI50 (GP2D cell line; [5]) [µM] | GI50 (LS174T cell line; [7]) [µM] | GI50 (LS180 cell line; [8]) [µM] | GI50 (CW2 cell line; [9]) [µM] | further results
7 | < 0.1 | 100 to 1000 | < 0.1 | COC[C@@H]1Cc2ccccc2N1C(=O)Nc1ccc2c(c1)CN(C1CCC(=O)NC1=O)C2=O (stereo partly drawn) [Compound 288, (2S)—N-(2-(2,6-dioxopiperidin-3-yl)-1-oxoisoindolin-5-yl)-2-(methoxymethyl)indoline-1-carboxamide] | 0.1 to 1 | 0.1 to 1 | 0.1 to 1 | < 0.1 | AUC ([2]; PO 10 mg/kg): 29700 ± 2450 ng·h/mL; AUC(0-t) ([2]; PO 10 mg/kg): 29600 ± 2460 ng·h/mL; Cmax ([2]; PO 10 mg/kg): 6870 ± 761 ng/mL; Tmax ([2]; PO 10 mg/kg): 49.8 ± 17.4 min; half-life ([2]; PO 10 mg/kg): 163 ± 29.4 min
8 | < 0.1 | 100 to 1000 |  | COC[C@H]1Cc2c(F)cccc2N1C(=O)Nc1ccc2c(c1)CN(C1CCC(=O)NC1=O)C2=O (stereo partly drawn) [Compound 303, (2R)—N-(2-(2,6-dioxopiperidin-3-yl)-1-oxoisoindolin-5-yl)-4-fluoro-2-(methoxymethyl)indoline-1-carboxamide] |  |  |  |  | AUC ([2]; PO 5 mg/kg (cassette dose)): 12700 ± 1760 ng·h/mL; AUC(0-t) ([2]; PO 5 mg/kg (cassette dose)): 12300 ± 1710 ng·h/mL; Cmax ([2]; PO 5 mg/kg (cassette dose)): 7790 ± 1060 ng/mL; Tmax ([2]; PO 5 mg/kg (cassette dose)): 30 min; half-life ([2]; PO 5 mg/kg (cassette dose)): 90.6 ± 13.2 min
9 | < 0.1 | 100 to 1000 | < 0.1 | O=C1CCC(N2Cc3cc(NC(=O)N4CCc5ccccc54)ccc3C2=O)C(=O)N1 (stereo not drawn) [Compound 103, N-(2-(2,6-dioxopiperidin-3-yl)-1-oxoisoindolin-5-yl)indoline-1-carboxamide] | < 0.1 | 0.1 to 1 | 0.1 to 1 | 0.1 to 1 | 
